Source: PMC8776995 (Frontiers in Chemistry, 2022)
“And” between values parts separate entries of the source, which are not always exact repeats. Equal values may be shown once. Blank lines part the entries; values can stand above or below the compound they belong to.

Legend:
[1] = tested on: A549 cells; assay: CCK-8 antiproliferation assay, A549; details: for Inhibitory efficacy: A549 cells; for IC50: A549, 48 h, read-out: IC50 (μM) A549, CCK-8, 48 h, average ± SD of three independent experiments
[2] = tested on: PC-9 cells; assay: CCK-8 antiproliferation assay, PC-9; details: for IC50: PC-9, 48 h, read-out: IC50 (μM) PC-9; for inhibition at 4 µM: PC-9, read-out: Inhibitory efficacy, PC-9, 4uM, single repeats (Repeat 1-3), given as fraction; for Inhibitory efficacy: single repeats (Repeat 1-3), given as fraction
[3] = tested on: H460 cells; assay: CCK-8 antiproliferation assay, H460; details: for Inhibitory efficacy: H460 cells; for IC50: NCI-H460, 48 h, read-out: IC50 (μM) H460, CCK-8, 48 h, average ± SD of three independent experiments
[4] = tested on: H1975 cells; assay: CCK-8 antiproliferation assay, H1975; details: for IC50: NCI-H1975, 48 h, read-out: IC50 (μM) H1975, CCK-8, 48 h, average ± SD of three independent experiments; for Inhibitory efficacy: H1975 cells
Protocol: The compounds were dissolved in DMSO to make a 20 μM stock solution and diluted to the concentration of working solutions with complete growth medium before administration.
Cells were seeded in 96-well plates: 3,000–5,000 cells/well in 100 ul. One day after seeding, the test compounds at concentration between 1.0 and 16.0 μ M or 0.1% DMSO (as control) were added to cells in triplicate. 48 h later, CCK-8 was added and incubated the plate for 1–4 h in the incubator. The absorbance at 450 nm were measured using a microplate reader (Bio-Tek).

[5] = biological target: wild-type EGFR (Homo sapiens, UniProt P00533); assay: EGFR kinase assay (ELISA); details: for IC50: IC50 (μM) EGFR, ELISA, 3 μmol/L ATP; for A450: raw ELISA absorbance
[6] = 2uM, given as fraction, Repeat 1-3
[7] = 4uM, given as fraction, Repeat 1-3
[8] = 8uM, given as fraction, Repeat 1-3
[9] = 16uM, given as fraction, Repeat 1-3
[10] = Homo sapiens, NCI-H460, read-out: Inhibitory efficacy, H460 cells, 2uM, given as fraction, Repeat 1-3

wild-type EGFR, sequence (P00533 25-1210): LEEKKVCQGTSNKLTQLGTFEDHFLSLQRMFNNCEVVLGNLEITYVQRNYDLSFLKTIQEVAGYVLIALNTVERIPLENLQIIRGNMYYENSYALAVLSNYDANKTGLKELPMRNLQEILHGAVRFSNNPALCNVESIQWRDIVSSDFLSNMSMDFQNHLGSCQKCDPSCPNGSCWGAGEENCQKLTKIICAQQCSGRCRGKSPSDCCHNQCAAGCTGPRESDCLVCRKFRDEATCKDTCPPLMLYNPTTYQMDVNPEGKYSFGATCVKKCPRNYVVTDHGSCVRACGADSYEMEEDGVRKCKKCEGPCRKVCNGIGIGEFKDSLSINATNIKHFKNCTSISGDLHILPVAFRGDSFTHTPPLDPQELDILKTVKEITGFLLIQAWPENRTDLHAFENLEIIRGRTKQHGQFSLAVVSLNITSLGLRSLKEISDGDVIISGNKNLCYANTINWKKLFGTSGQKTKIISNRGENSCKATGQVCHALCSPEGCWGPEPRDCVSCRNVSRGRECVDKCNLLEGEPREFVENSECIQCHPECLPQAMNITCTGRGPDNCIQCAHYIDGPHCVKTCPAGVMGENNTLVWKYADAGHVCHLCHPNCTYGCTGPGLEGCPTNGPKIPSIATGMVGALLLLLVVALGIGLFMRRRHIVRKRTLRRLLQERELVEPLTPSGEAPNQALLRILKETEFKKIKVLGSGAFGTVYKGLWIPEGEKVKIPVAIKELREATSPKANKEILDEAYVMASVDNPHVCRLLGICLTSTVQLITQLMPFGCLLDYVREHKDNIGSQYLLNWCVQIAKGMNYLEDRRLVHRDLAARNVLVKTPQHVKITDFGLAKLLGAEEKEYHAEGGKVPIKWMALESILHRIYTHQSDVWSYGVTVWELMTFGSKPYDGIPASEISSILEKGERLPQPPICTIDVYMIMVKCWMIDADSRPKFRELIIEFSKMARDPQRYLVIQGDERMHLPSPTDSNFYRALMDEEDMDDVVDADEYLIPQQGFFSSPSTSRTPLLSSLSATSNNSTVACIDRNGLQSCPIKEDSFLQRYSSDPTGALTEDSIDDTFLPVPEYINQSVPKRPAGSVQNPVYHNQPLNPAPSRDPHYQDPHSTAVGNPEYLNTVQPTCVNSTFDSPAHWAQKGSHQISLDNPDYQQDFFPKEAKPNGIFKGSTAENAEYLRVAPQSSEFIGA

IC50 ([1]; Homo sapiens): 4.88 ± 0.54 µM | IC50 ([2]; Homo sapiens): 3.27 ± 0.14 µM | IC50 ([3]; Homo sapiens): 18.5 ± 2 µM | IC50 ([4]; Homo sapiens): 16.5 ± 3.53 µM | melting point: 83 to 86 °C | inhibition at 0.0003 µM ([5]; 0.3 nM, duplicate wells, calculated from A450): 17.1% | Inhibition ([5]; 0.3 nM, duplicate wells, calculated from A450, 0.0003 µM): 10.6583 | inhibition at 0.003 µM ([5]; 3 nM, duplicate wells, calculated from A450): 21.5% | Inhibition ([5]; 3 nM, duplicate wells, calculated from A450, 0.003 µM): 11.5987 | inhibition at 0.03 µM ([5]; 30 nM, duplicate wells, calculated from A450): 26.3% | Inhibition ([5]; 30 nM, duplicate wells, calculated from A450, 0.03 µM): 21.0031 | inhibition at 0.3 µM ([5]; 300 nM, duplicate wells, calculated from A450): 29.7% | Inhibition ([5]; 300 nM, duplicate wells, calculated from A450, 0.3 µM): 21.3166 | inhibition at 3 µM ([5]; 3000 nM, duplicate wells, calculated from A450): 70.9% | Inhibition ([5]; 3000 nM, duplicate wells, calculated from A450, 3 µM): 70.8464 | inhibition at 30 µM ([5]; 30000 nM, duplicate wells, calculated from A450): 91.8% | Inhibition ([5]; 30000 nM, duplicate wells, calculated from A450, 30 µM): 93.4169 | IC50 [5]: 0.69 µM
SMILES: COCCOc1cc2ncnc(Nc3cccc(-c4cn(-c5ccccc5F)nn4)c3)c2cc1OCCOC [e6, [6,7-Bis-(2-methoxy-ethoxy)-quinazolin-4-yl]-{3-[1-(2-fluoro-phenyl)-1H-[1,2,3]triazol-4-yl]-phenyl}-amine]
Inhibitory efficacy [1, 6]: 0.2224 and 0.3459 | Inhibitory efficacy [1, 7]: 0.572 and 0.5248 | Inhibitory efficacy [1, 8]: 0.6524 and 0.6253 | Inhibitory efficacy [1, 9]: 0.6986 and 0.7076 | inhibition at 2 µM ([1]; Homo sapiens, A549, read-out: Inhibitory efficacy, A549 cells, 2uM, given as fraction, Repeat 1-3): 25.8% | inhibition at 4 µM ([1]; Homo sapiens, A549, read-out: Inhibitory efficacy, A549 cells, 4uM, given as fraction, Repeat 1-3): 45.7% | inhibition at 8 µM ([1]; Homo sapiens, A549, read-out: Inhibitory efficacy, A549 cells, 8uM, given as fraction, Repeat 1-3): 63.5% | inhibition at 16 µM ([1]; Homo sapiens, A549, read-out: Inhibitory efficacy, A549 cells, 16uM, given as fraction, Repeat 1-3): 69.8% | inhibition at 2 µM ([2]; Homo sapiens, PC-9, read-out: Inhibitory efficacy, PC-9, 2uM, single repeats (Repeat 1-3), given as fraction): 37.3% | inhibition at 4 µM ([2]; Homo sapiens): 61.7% | inhibition at 8 µM ([2]; Homo sapiens, PC-9, read-out: Inhibitory efficacy, PC-9, 8uM, single repeats (Repeat 1-3), given as fraction): 77.6% | inhibition at 16 µM ([2]; Homo sapiens, PC-9, read-out: Inhibitory efficacy, PC-9, 16uM, single repeats (Repeat 1-3), given as fraction): 85% | Inhibitory efficacy ([2]; PC-9, 2uM, 2 µM): 0.401 and 0.3548 | Inhibitory efficacy ([2]; PC-9, 4uM, 4 µM): 0.5712 and 0.6591 | Inhibitory efficacy ([2]; PC-9, 8uM, 8 µM): 0.783 and 0.7626 | Inhibitory efficacy ([2]; PC-9, 16uM, 16 µM): 0.8422 and 0.8588 | Inhibitory efficacy ([3]; 1uM, given as fraction, Repeat 1-3): 0.0882 and 0.09728 | Inhibitory efficacy [3, 6]: 0.2957 and 0.2477 | Inhibitory efficacy [3, 7]: 0.4663 and 0.4358 | Inhibitory efficacy [3, 8]: 0.4163 and 0.4008 | Inhibitory efficacy [3, 9]: 0.4274 and 0.4066 | inhibition at 1 µM ([3]; Homo sapiens, NCI-H460, read-out: Inhibitory efficacy, H460 cells, 1uM, given as fraction, Repeat 1-3): 14.7% | inhibition at 2 µM [3, 10]: 33.2% | inhibition at 4 µM ([3]; Homo sapiens, NCI-H460, read-out: Inhibitory efficacy, H460 cells, 4uM, given as fraction, Repeat 1-3): 39.8% | inhibition at 8 µM ([3]; Homo sapiens, NCI-H460, read-out: Inhibitory efficacy, H460 cells, 8uM, given as fraction, Repeat 1-3): 42.1% | inhibition at 16 µM ([3]; Homo sapiens, NCI-H460, read-out: Inhibitory efficacy, H460 cells, 16uM, given as fraction, Repeat 1-3): 44.7%

IC50 ([1]; Homo sapiens): > 100 µM | IC50 ([2]; Homo sapiens): > 100 µM | IC50 ([3]; Homo sapiens): > 100 µM | IC50 ([4]; Homo sapiens): > 100 µM | melting point: 89 to 92 °C | IC50 [5]: 1.34 µM | Inhibition ([5]; concentration 0.03 nM, one value per replicate column, 3e-05 µM): 3.106 and 6.667 | inhibition at 0.0003 µM ([5]; concentration 0.3 nM, one value per replicate column): 14.9% | Inhibition ([5]; concentration 0.3 nM, one value per replicate column, 0.0003 µM): 12.7273 | inhibition at 0.003 µM ([5]; concentration 3 nM, one value per replicate column): 15.5% | Inhibition ([5]; concentration 3 nM, one value per replicate column, 0.003 µM): 27.2727 | inhibition at 0.03 µM ([5]; concentration 30 nM, one value per replicate column): 28% | Inhibition ([5]; concentration 30 nM, one value per replicate column, 0.03 µM): 34.5455 | inhibition at 0.3 µM ([5]; concentration 300 nM, one value per replicate column): 34.2% | Inhibition ([5]; concentration 300 nM, one value per replicate column, 0.3 µM): 43.6364 | inhibition at 3 µM ([5]; concentration 3000 nM, one value per replicate column): 43.5% | Inhibition ([5]; concentration 3000 nM, one value per replicate column, 3 µM): 45.4545 | inhibition at 30 µM ([5]; concentration 30000 nM, one value per replicate column): 73.9% | Inhibition ([5]; concentration 30000 nM, one value per replicate column, 30 µM): 80.6061 | A450 ([5]; concentration 0.0001 nM): 0.408 and 0.407 | A450 ([5]; concentration 0.03 nM): 0.403 and 0.396 | A450 ([5]; concentration 0.3 nM): 0.384 and 0.386 | A450 ([5]; concentration 3 nM): 0.383 and 0.362 | A450 ([5]; concentration 30 nM): 0.363 and 0.35 | A450 ([5]; concentration 300 nM): 0.353 and 0.335 | A450 ([5]; concentration 3000 nM): 0.338 and 0.332 | A450 ([5]; concentration 30000 nM): 0.289 and 0.274
SMILES: COCCOc1cc2ncnc(Nc3cccc(-c4cn(Cc5ccccc5)nn4)c3)c2cc1OCCOC [e1, [3-(1-Benzyl-1H-[1,2,3]triazol-4-yl)-phenyl]-[6,7-bis-(2-methoxy-ethoxy)-quinazolin-4-yl]-amine]
inhibition at 4 µM ([2]; Homo sapiens): 13.4% | Inhibitory efficacy ([2]; PC-9, 4uM, 4 µM): 0.07898 and 0.104 | Inhibitory efficacy [3, 6]: 0.09593 and 0.09213 | inhibition at 2 µM [3, 10]: 11.9% | Inhibitory efficacy [4, 6]: 0.214 and 0.1313 | Inhibitory efficacy [4, 7]: 0.2001 and 0.2011 | Inhibitory efficacy [4, 8]: 0.2439 and 0.3137 | Inhibitory efficacy [4, 9]: 0.3018 and 0.3516 | inhibition at 2 µM ([4]; Homo sapiens, NCI-H1975, read-out: Inhibitory efficacy, H1975 cells, 2uM, given as fraction, Repeat 1-3): 24.3% | inhibition at 4 µM ([4]; Homo sapiens, NCI-H1975, read-out: Inhibitory efficacy, H1975 cells, 4uM, given as fraction, Repeat 1-3): 28.4% | inhibition at 8 µM ([4]; Homo sapiens, NCI-H1975, read-out: Inhibitory efficacy, H1975 cells, 8uM, given as fraction, Repeat 1-3): 25.2% | inhibition at 16 µM ([4]; Homo sapiens, NCI-H1975, read-out: Inhibitory efficacy, H1975 cells, 16uM, given as fraction, Repeat 1-3): 37.9%
